The target in data set [1] is T1, Chinese hamster ovary cell-derived wild type aGal A (CHO aGal A) (Homo sapiens, UniProt P06280).
T1 construct: host or cells: Chinese hamster ovary (CHO) cells
T1 sequence (P06280 32-429): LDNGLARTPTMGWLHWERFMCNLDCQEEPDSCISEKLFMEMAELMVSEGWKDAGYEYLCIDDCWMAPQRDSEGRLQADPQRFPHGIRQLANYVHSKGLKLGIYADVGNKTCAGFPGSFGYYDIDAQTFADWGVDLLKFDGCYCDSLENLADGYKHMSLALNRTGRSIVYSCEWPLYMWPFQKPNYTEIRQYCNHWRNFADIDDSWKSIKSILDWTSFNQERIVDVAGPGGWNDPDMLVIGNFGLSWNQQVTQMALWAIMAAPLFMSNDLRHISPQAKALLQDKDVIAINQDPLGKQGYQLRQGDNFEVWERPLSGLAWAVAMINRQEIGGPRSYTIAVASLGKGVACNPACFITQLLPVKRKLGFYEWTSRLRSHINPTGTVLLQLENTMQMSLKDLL
As to the kind of experiment: In vitro affinity assay: residual activity of CHO aGal A enzyme, hydrolysis of 4-methylumbelliferyl-α-D-galactopyranoside. Particulars: 1 nM enzyme, 30 min preincubation at room temperature, pH 4.6, 5 mM 4-MUGA substrate. It counts as biochemical. The procedure: Using an in vitro affinity assay, measurement of residual activity by preincubating the enzyme with varying concentrations of the probe confirmed that the [^19F]
Figure 5 Residual activity of CHO aGal A enzyme measured via hydrolysis of substrate 4−methylumbelliferyl−α−D−galactopyranoside after 30 min of preincubation with AGAL probe.
The IC50 assessment for the aGal inhibitors was performed using the fluorescent substrate in a McIlvaine buffer at pH 4.6. The CHO aGal A enzyme at 1 nM was pre-incubated with different concentrations of the inhibitor or DMSO as control for 30 min at room temperature. The fluorescent substrate 4-methylumbelliferyl-α-D-galactopyranoside (Research Products International company, catalog number M65400, Mount Prospect, IL, USA) was then added to a final concentration of 5 mM. The reaction was quenched with 0.5 M sodium bicarbonate buffer, with pH 10.5, and plates were read using a SpectraMax reader at excitation and emission wavelengths of 360 and 460 nm, respectively. Data were corrected for background fluorescence and IC50 calculation was performed using an inhibitory dose–response curve fitting in GraphPad Prizm 8.0.

Data set [2] concerns the target 167 protein targets (human and rodent recombinant receptors and binding sites). Kind of data set: Eurofins SpectrumScreen selectivity panel. The procedure: The AGAL molecule had ≥50% inhibition of specific binding or activity with IC50 values > 10 µM for a range of human and rodent recombinant receptors and binding sites (e.g., calcium and potassium channels and various subtypes of adrenergic, bombesin, calcitonin, serotonin, acetylcholine, histamine, and glutamate receptors or transporters).
The AGAL molecule was tested for estimated inhibition potency (IC50) and/or inhibition constants (Ki) on 167 protein targets (Eurofins SpectrumScreen).

The nature of data set [3]: LogD determination, miniaturized shake flask method. It counts as physicochemical. Particulars: octanol/buffer (1:1); octanol/buffer pH 7.4 (1:1), 66.6 μM. On the procedure:
The distribution of AGAL between an organic solvent (octanol) and aqueous buffer (pH 7.4) was tested using the miniaturized shake flask method in octanol/buffer (1:1). This was accomplished by spiking the test compound (prepared in DMSO) into pre-equilibrated octanol/buffer phases at a concentration of 66.6 μM followed by shaking at 880 rpm for 1 h. The concentration of the test compound in both phases was analyzed using LC–MS/MS.

Data set [4] in a line: Plasma stability study, mouse. Format: in vitro ADME. The procedure: Briefly, plasma stability was assessed by incubating compounds in the presence of human (pooled) and mouse (pooled) plasma (Bioreclamation, Westbury, NY, USA). All chemicals and reagents including control compounds were purchased from commercial sources such as Sigma-Aldrich or Toronto Research Chemicals. Plasma incubations were conducted by placing plasma (95 μL) in a 96-well microtiter plate and warming to 37 °C for 5 min. The reaction was initiated with the addition of the test article (5 μL of 20 μM), totaling 100 μL in incubation volume. At 0, 15, 30, 60, and 120 min time points, the reactions were terminated with the addition of acetonitrile-containing carbutamide (as an internal standard). The terminated samples were then centrifuged at 2 °C to pellet the protein, and the supernatant was injected onto an LC–MS. The test article was monitored for loss over time and the t1/2 was determined.

Data set [5] can be described thus: In vitro liver microsomal metabolism study, mouse. Format: in vitro ADME. Particulars: mouse liver microsomes. The procedure: Metabolic stability was assessed by incubating compounds in the presence of human, rat, and mouse liver microsomal fractions (Xenotech, Kansas City, KS, USA). All chemicals and reagents, including control compounds, were purchased from commercial sources such as Sigma-Aldrich (St. Louis, MO, USA) or Toronto Research Chemicals (North York, ON, Canada). Liver microsomal incubations were conducted with 100 mM phosphate buffer, 0.5 mg/mL of liver microsomal protein, 2 mM NADPH, 2.5 mM UDPGA, 3 mM MgCl2, alamethicin, and 1 μM test article for a total incubation volume of 80 µL. All reagents except the liver microsomes were mixed together and aliquoted (60 μL) into 96-well plates. The reaction was initiated by adding the microsomes (20 μL). At 0, 3, 7, 12, 20, and 30 min time points, the reactions were terminated with the addition of acetonitrile-containing carbutamide (as an internal standard). The terminated samples were then centrifuged at 2 °C to pellet the protein and the supernatant was injected onto an LC–MS. The test article was monitored for loss over time and the t1/2 was determined. The calculated t1/2 was then used as described below to determine the Eh (hepatic extraction ratio) for both human and rat.
The intrinsic clearance (CLint), hepatic clearance (CLh), and hepatic extraction ratio (Eh) were calculated using the equations below. CLint = (0.693/t1/2 in vitro) × (mL incubation volume/mg microsomal protein) × (X mg of microsomal protein/gram of liver) × (Y g of liver/kg of body weight)(1) CLh = Q × CLint/Q + CLint(2) Eh = CLh/Q(3) where: • CLint = intrinsic clearance (calculated from microsomal incubations) • X = 40 for human, 41.5 for rat and 45 for mouse • Y = 21.4 for human, 40 for rat and 50 for mouse • t1/2 = half-life • CLh = hepatic clearance • Q = liver blood flow rate = 1.24 L/h/kg for human, 4.8 L/h/kg for rat, and 5.4 L/h/kg for mouse • Eh = hepatic extraction ratio • CLh = hepatic clearance

pIC50: −log10 of the molar value.

Turning to `O=C(CCCCCCCn1cc(CCCF)nn1)N1[C@@H]2[C@H](O)[C@@H](O)[C@@H](O)[C@@H](CO)[C@@H]21` [AGAL], in data set [1], the pIC50 was 7.52. The pIC50 in data set [2] (range of human and rodent recombinant receptors and binding sites, read-out: IC50 values for off-target receptors and binding sites) is less than 5.00. In addition, the “inhibition of specific binding or activity” value in data set [2] (selectivity panel, >160 proteins) is no less than 50%. The logD at 1 h in data set [3] is -0.43. Besides, the “Plasma Half-Life, t1/2” value in data set [4] (37 °C) was determined as 9.83 min. Also, in data set [4] (30 min post-incubation), the parent remaining is 18%. Also, in data set [4] (mouse, pooled plasma, 37 °C, read-out: Plasma Half-Life, t1/2), the half-life at 1 µM is less than 10 min. In addition, in data set [5], the CLh is 68.8 mL/min/kg; the “Eh (hepatic extraction ratio)” value came out at 0.766; the “microsomal stability, clearance in words” value is “highly cleared”. In addition, the CLint scaled at 1 µM in data set [5] (1 μM, NADPH + UDPGA) was 293 mL/min/kg.

A word on the pIC50: it is −log10 of the IC50, conventionally taken in molar units. As a reminder, the logD is the decadic logarithm of the distribution of all forms, ionised or not, between an organic phase and buffer at a given pH. High values mean a more lipophilic compound, low ones a more hydrophilic compound. The CLint scaled is the capacity of the preparation to metabolise the compound, expressed as a volume cleared per time.

The record behind these values is PMC10609273, “Radiosynthesis and Early Evaluation of a Positron Emission Tomography Imaging Probe [^18F]AGAL Targeting Alpha-Galactosidase A Enzyme for Fabry Disease” (Molecules, 2023).
